Test results published in patent US20260297080A1, “BICYCLIC COMPOUNDS AS CDK INHIBITORS” (BeOne Medicines I GmbH, priority 2022, published 2026).
pIC50: −log10 of the molar value.

What was measured:
CDK2/Cyclin E1 = CDK2/Cyclin E1 (Homo sapiens, UniProt P24941); experiment: CDK2/Cyclin E1 Biochemical Assay (TR-FRET), 0.060 mM ATP; details: 0.15 μM Rb (Ser780)-biotin substrate, pH7.0, 60 min preincubation, 120 min reaction, room temperature
How it was run: (§1)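 Inhibitor concentrations up to 10 μM were preincubated with each cyclin–kinase complex for 60 minutes before ATP and biotinylated Rb (Ser780) substrate (0.15 μM) were added. After 120 minutes at room temperature, phosphorylation was quantified by HTRF and IC50 values were fitted with a four-parameter logistic equation.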

CDK1/Cyclin B1 = CDK1/Cyclin B1 (Homo sapiens, UniProt P06493); experiment: CDK1/Cyclin B1 Biochemical Assay (TR-FRET), 0.015 mM ATP; details: 0.15 μM Rb (Ser780)-biotin substrate, pH7.0, 60 min preincubation, 120 min reaction, room temperature
Chain of CDK1/Cyclin B1 (P06493 whole entry): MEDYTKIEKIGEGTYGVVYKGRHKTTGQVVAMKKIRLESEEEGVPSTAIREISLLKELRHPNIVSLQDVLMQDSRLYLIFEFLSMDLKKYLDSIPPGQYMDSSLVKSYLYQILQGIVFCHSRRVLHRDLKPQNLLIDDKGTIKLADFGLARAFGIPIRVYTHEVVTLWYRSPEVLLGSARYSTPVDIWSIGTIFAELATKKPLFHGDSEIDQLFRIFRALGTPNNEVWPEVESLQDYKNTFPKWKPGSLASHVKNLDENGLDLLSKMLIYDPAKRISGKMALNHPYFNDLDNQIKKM
Chain of CDK1/Cyclin B1 (P14635 whole entry partner): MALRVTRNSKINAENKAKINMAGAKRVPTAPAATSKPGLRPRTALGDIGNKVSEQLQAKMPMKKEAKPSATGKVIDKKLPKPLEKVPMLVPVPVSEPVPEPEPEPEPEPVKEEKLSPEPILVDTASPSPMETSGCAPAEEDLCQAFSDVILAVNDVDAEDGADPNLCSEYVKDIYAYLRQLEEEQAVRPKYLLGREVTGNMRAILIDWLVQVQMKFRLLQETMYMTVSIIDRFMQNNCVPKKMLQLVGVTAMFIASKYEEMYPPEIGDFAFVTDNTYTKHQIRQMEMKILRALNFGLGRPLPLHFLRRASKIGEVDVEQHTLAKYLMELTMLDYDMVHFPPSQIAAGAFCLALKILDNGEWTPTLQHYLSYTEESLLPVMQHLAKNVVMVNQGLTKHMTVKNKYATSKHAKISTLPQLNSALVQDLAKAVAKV
How it was run: as §1

pIC50 (CDK2/Cyclin E1) | pIC50 (CDK1/Cyclin B1) | SMILES
8.28 | 6.36 | CC(C)NC(=O)O[C@H]1CC[C@@H](c2cc(Nc3ccc4c(c3F)CN(CC(O)CO)S4(=O)=O)n[nH]2)C1 (relative stereo) [Example 71, cis-3-(3-((2-(2,3-dihydroxypropyl)-4-fluoro-1,1-dioxido-2,3-dihydrobenzo[d]isothiazol-5-yl)amino)-1H-pyrazol-5-yl)cyclopentyl isopropylcarbamate]
5.23 | < 5.00 | CC(C)NC(=O)O[C@H]1CC[C@@H](c2cc(Nc3ccc4c(c3F)CN(CC(O)CO)S4(=O)=O)nn2CC(O)CO)C1 (relative stereo) [Example 72, cis-3-(1-(2,3-dihydroxypropyl)-3-((2-(2,3-dihydroxypropyl)-4-fluoro-1,1-dioxido-2,3-dihydrobenzo[d]isothiazol-5-yl)amino)-1H-pyrazol-5-yl)cyclopentyl isopropylcarbamate]
8.10 | 6.23 | CC(C)NC(=O)O[C@H]1CC[C@@H](c2cc(Nc3ccc4c(c3F)CN(CCCN(C)C)S4(=O)=O)n[nH]2)C1 (relative stereo) [Example 73, cis-3-(3-((2-(3-(dimethylamino)propyl)-4-fluoro-1,1-dioxido-2,3-dihydrobenzo[d]isothiazol-5-yl)amino)-1H-pyrazol-5-yl)cyclopentyl isopropylcarbamate]
7.80 | 6.02 | CC(C)NC(=O)O[C@H]1CC[C@@H](c2cc(Nc3ccc4c(c3F)CN(CCN(C)C)S4(=O)=O)n[nH]2)C1 (relative stereo) [Example 74, cis-3-(3-((2-(2-(dimethylamino)ethyl)-4-fluoro-1,1-dioxido-2,3-dihydrobenzo[d]isothiazol-5-yl)amino-1H-pyrazol-5-yl)cyclopentyl isopropylcarbamate]
7.80 | 5.97 | CC(C)NC(=O)O[C@H]1CC[C@@H](c2cc(Nc3ccc4c(c3F)CN(Cc3ccccc3)S4(=O)=O)n[nH]2)C1 (relative stereo) [Example 75, cis-3-(3-((2-benzyl-4-fluoro-1,1-dioxido-2,3-dihydrobenzo[d]isothiazol-5-yl)amino)-1H-pyrazol-5-yl)cyclopentyl isopropylcarbamate]
8.00 | 6.38 | CC(C)NC(=O)O[C@H]1CC[C@@H](c2cc(Nc3ccc4c(c3F)CN(CC(C)(C)O)S4(=O)=O)n[nH]2)C1 (relative stereo) [Example 76, cis-3-(3-((4-fluoro-2-(2-hydroxy-2-methylpropyl)-1,1-dioxido-2,3-dihydrobenzo[d]isothiazol-5-yl)amino)-1H-pyrazol-5-yl)cyclopentyl isopropylcarbamate]
8.00 | 6.21 | CC(C)NC(=O)O[C@H]1CC[C@@H](c2cc(Nc3ccc4c(c3F)CN(C3CCN(S(C)(=O)=O)CC3)S4(=O)=O)n[nH]2)C1 (relative stereo) [Example 77, cis-3-(3-((4-fluoro-2-(1-(methylsulfonyl)piperidin-4-yl)-1,1-dioxido-2,3-dihydrobenzo[d]isothiazol-5-yl)amino)-1H-pyrazol-5-yl)cyclopentyl isopropylcarbamate]
8.05 | 6.25 | CC(=O)N1CCC(N2Cc3c(ccc(Nc4cc([C@@H]5CC[C@H](OC(=O)NC(C)C)C5)[nH]n4)c3F)S2(=O)=O)CC1 (relative stereo) [Example 78, cis-3-(3-((2-(1-acetylpiperidin-4-yl)-4-fluoro-1,1-dioxido-2,3-dihydrobenzo[d]isothiazol-5-yl)amino)-1H-pyrazol-5-yl)cyclopentyl isopropylcarbamate]
8.08 | 6.20 | CC(C)NC(=O)O[C@H]1CC[C@@H](c2cc(Nc3ccc4c(c3F)CN(C3CCNC3=O)S4(=O)=O)n[nH]2)C1 (relative stereo) [Example 79, cis-3-(3-((4-fluoro-1,1-dioxido-2-(2-oxopyrrolidin-3-yl)-2,3-dihydrobenzo[d]isothiazol-5-yl)amino)-1H-pyrazol-5-yl)cyclopentyl isopropylcarbamate]
8.00 | 6.12 | CC(=O)N1CCC(N2Cc3c(ccc(Nc4cc([C@@H]5CC[C@H](OC(=O)NC(C)C)C5)[nH]n4)c3F)S2(=O)=O)C1 (relative stereo) [Example 80, cis-3-(3-((2-(1-acetylpyrrolidin-3-yl)-4-fluoro-1,1-dioxido-2,3-dihydrobenzo[d]isothiazol-5-yl)amino)-1H-pyrazol-5-yl)cyclopentyl isopropylcarbamate]
8.14 | 6.27 | CC(C)NC(=O)O[C@H]1CC[C@@H](c2cc(Nc3ccc4c(c3F)CN(C3CCNC(=O)C3)S4(=O)=O)n[nH]2)C1 (relative stereo) [Example 81, cis-3-(3-((4-fluoro-1,1-dioxido-2-(2-oxopiperidin-4-yl)-2,3-dihydrobenzo[d]isothiazol-5-yl)amino)-1H-pyrazol-5-yl)cyclopentyl isopropylcarbamate]
8.00 | 6.42 | CC(C)NC(=O)O[C@H]1CC[C@@H](c2cc(Nc3ccc4c(c3F)CN(C3CCC(=O)NC3)S4(=O)=O)n[nH]2)C1 (relative stereo) [Example 82, cis-3-(3-((4-fluoro-1,1-dioxido-2-(6-oxopiperidin-3-yl)-2,3-dihydrobenzo[d]isothiazol-5-yl)amino)-1H-pyrazol-5-yl)cyclopentyl isopropylcarbamate]
7.82 | 6.25 | CC(C)NC(=O)O[C@H]1CC[C@@H](c2cc(Nc3ccc4c(c3F)CN(C3CCC(=O)N(C)C3)S4(=O)=O)n[nH]2)C1 (relative stereo) [Example 83, cis-3-(3-((4-fluoro-2-(1-methyl-6-oxopiperidin-3-yl)-1,1-dioxido-2,3-dihydrobenzo[d]isothiazol-5-yl)amino)-1H-pyrazol-5-yl)cyclopentyl isopropylcarbamate]
8.07 | 6.41 | CC(C)NC(=O)O[C@H]1CC[C@@H](c2cc(Nc3ccc4c(c3F)CN(C3CC(O)C3)S4(=O)=O)n[nH]2)C1 (relative stereo) [Example 84, 3-(3-((4-fluoro-2-(3-hydroxycyclobutyl)-1,1-dioxido-2,3-dihydrobenzo[d]isothiazol-5-yl)amino)-1H-pyrazol-5-yl)cyclopentyl isopropylcarbamate]
8.34 | 6.33 | CC(C)NC(=O)O[C@H]1CC[C@@H](c2cc(Nc3ccc4c(c3F)CN(C3CCN(S(C)(=O)=O)C3)S4(=O)=O)n[nH]2)C1 (relative stereo) [Example 85, cis-3-(3-((4-fluoro-2-(1-(methylsulfonyl)pyrrolidin-3-yl)-1,1-dioxido-2,3-dihydrobenzo[d]isothiazol-5-yl)amino)-1H-pyrazol-5-yl)cyclopentyl isopropylcarbamate]
8.11 | 6.13 | CC(C)NC(=O)O[C@H]1CC[C@@H](c2cc(Nc3ccc4c(c3F)CN(C3CCCNC3=O)S4(=O)=O)n[nH]2)C1 (relative stereo) [Example 86, cis-3-(3-((4-fluoro-1,1-dioxido-2-(2-oxopiperidin-3-yl)-2,3-dihydrobenzo[d]isothiazol-5-yl)amino)-1H-pyrazol-5-yl)cyclopentyl isopropylcarbamate]
7.54 | 5.96 | CC(C)NC(=O)O[C@H]1CC[C@@H](c2cc(Nc3ccc4c(c3F)CN(C3CCN(Cc5ccccc5)C3)S4(=O)=O)n[nH]2)C1 (relative stereo) [Example 87, cis-3-(3-((2-(1-benzylpyrrolidin-3-yl)-4-fluoro-1,1-dioxido-2,3-dihydrobenzo[d]isothiazol-5-yl)amino)-1H-pyrazol-5-yl)cyclopentyl isopropylcarbamate]
8.00 | 6.00 | CC(C)NC(=O)O[C@H]1CC[C@@H](c2cc(Nc3ccc4c(c3F)CN(C3CCCN(C)C3=O)S4(=O)=O)n[nH]2)C1 (relative stereo) [Example 88, cis-3-(3-((4-fluoro-2-(1-methyl-2-oxopiperidin-3-yl)-1,1-dioxido-2,3-dihydrobenzo[d]isothiazol-5-yl)amino)-1H-pyrazol-5-yl)cyclopentyl isopropylcarbamate]
7.47 | 6.06 | CC(C)NC(=O)O[C@H]1CC[C@@H](c2cc(Nc3ccc4c(c3F)CN(C3CN(S(C)(=O)=O)C3)S4(=O)=O)n[nH]2)C1 (relative stereo) [Example 89, cis-3-(3-((4-fluoro-2-(1-(methylsulfonyl)azetidin-3-yl)-1,1-dioxido-2,3-dihydrobenzo[d]isothiazol-5-yl)amino)-1H-pyrazol-5-yl)cyclopentyl isopropylcarbamate]
7.70 | 6.12 | CC(=O)N1CC(N2Cc3c(ccc(Nc4cc([C@@H]5CC[C@H](OC(=O)NC(C)C)C5)[nH]n4)c3F)S2(=O)=O)C1 (relative stereo) [Example 90, cis-3-(3-((2-(1-acetylazetidin-3-yl)-4-fluoro-1,1-dioxido-2,3-dihydrobenzo[d]isothiazol-5-yl)amino)-1H-pyrazol-5-yl)cyclopentyl isopropylcarbamate]
7.62 | 6.02 | CC(C)NC(=O)O[C@H]1CC[C@@H](c2cc(Nc3ccc4c(c3F)CN(C3CN(C)C3)S4(=O)=O)n[nH]2)C1 (relative stereo) [Example 91, cis-3-(3-((4-fluoro-2-(1-methylazetidin-3-yl)-1,1-dioxido-2,3-dihydrobenzo[d]isothiazol-5-yl)amino)-1H-pyrazol-5-yl)cyclopentyl isopropylcarbamate]
7.44 | 5.81 | CC(C)NC(=O)O[C@H]1CC[C@@H](c2cc(Nc3ccc4c(c3F)CN(C3CN(Cc5ccccc5)C3)S4(=O)=O)n[nH]2)C1 (relative stereo) [Example 92, cis-3-(3-((2-(1-benzylazetidin-3-yl)-4-fluoro-1,1-dioxido-2,3-dihydrobenzo[d]isothiazol-5-yl)amino)-1H-pyrazol-5-yl)cyclopentyl isopropylcarbamate]
